According to publication PMC4954775 (Nature chemical biology, 2013):

Molecular target: T1, α-L-iduronidase (IDUA) (Homo sapiens, UniProt P35475)
T1 sequence (P35475 28-653): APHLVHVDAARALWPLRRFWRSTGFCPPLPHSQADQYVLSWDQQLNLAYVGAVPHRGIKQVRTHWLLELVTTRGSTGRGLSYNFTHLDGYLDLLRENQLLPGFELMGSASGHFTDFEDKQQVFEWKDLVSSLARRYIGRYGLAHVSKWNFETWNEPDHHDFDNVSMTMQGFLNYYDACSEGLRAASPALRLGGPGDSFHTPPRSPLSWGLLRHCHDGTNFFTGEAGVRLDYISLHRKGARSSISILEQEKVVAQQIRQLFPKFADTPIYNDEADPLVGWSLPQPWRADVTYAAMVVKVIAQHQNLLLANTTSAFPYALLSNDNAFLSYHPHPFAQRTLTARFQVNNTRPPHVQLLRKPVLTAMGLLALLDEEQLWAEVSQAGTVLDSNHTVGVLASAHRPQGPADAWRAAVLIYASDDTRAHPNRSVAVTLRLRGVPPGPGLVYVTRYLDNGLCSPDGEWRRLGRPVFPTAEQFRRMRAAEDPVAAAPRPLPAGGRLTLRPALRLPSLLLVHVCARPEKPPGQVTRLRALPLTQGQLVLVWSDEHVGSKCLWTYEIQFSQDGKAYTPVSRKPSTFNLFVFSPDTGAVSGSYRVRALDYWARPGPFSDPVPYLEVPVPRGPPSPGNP
Test: X-ray crystal structure
Format: biochemical

- IC50: ~3 mM
SMILES: O=C(O)[C@@H]1NC[C@H](O)[C@@H](O)[C@@H]1O [IdoADNJ, [2R, 3R, 4R, 5S]-2-carboxy-3,4,5-trihydroxy-piperidine]
